In patent publication US20220105150A1, “AMPHIPATHIC ALPHA-HELICAL ANTIMICROBIAL PEPTIDES TREAT INFECTIONS BY GRAM-NEGATIVE PATHOGENS” (priority 2019, published 2022):
Values after ≈ are worked out from the molar mass of the structure shown. Square brackets hold non-standard residues; d marks the D form. Peptide text beside a SMILES is read from it. Dap = NC[C@H](N)C(=O)O

How the values were obtained:
[1] = tested on: A. baumannii strains from JMI Laboratories; settings: 20 A. baumannii isolates from JMI Laboratories; cited from earlier work
[2] = tested on: Acinetobacter baumannii strains resistant to Polymyxin B and Colistin; settings: strains resistant to Polymyxin B and Colistin, 24 h
Source text: The coupling procedure used 5 equivalents of Fmoc-D-amino acid or Fmoc-L-amino acid and HCTU (O-(1H-6-chlorobenzotriazole-1-yl)-1,1,3,3-tetramethyluronium hexafluorophosphate) and 6-Cl-HOBt (1-hydroxy-6-chloro-benztriazole) at 4.5 equivalents in DMF (Fisher Scientific, Denver, Colo.) and N-diisopropylethylamine (DIPEA) 10 equivalents (Oakwood Products, Inc., Estill, S.C.) in N-methyl-2-pyrrolidinone (NMP) (Fisher Scientific, Denver, Colo.) with the first and second couplings at room temperature for 30 min each. The deprotection procedure (removal of Fmoc protecting group) was carried out by treatment of the resin with 0.1 M HOBt (1-hydroxybenzotriazole) in DMF with 20% piperidine for 30 min. […] The resin was removed by filtration and peptide was precipitated with ice-cooled ethyl ether on ice for 15 min. Ether was decanted, the peptide was washed twice with ether and redissolved in acetonitrile/water (1:1, with 0.2% TFA) and the solution lyophilized to obtain the crude peptide. • Analytical and Preparative Purification by Reversed-Phase Chromatography: Analytical RP-HPLC: Column, Luna C18 (2), 250×4.6 mm I.D., 5 μm particle size, 100 Å pore size from Phenomenex (Torrance, Calif.). Run conditions: linear AB gradient (1% acetonitrile/min, starting from 2% acetonitrile) at a flow-rate of 1 ml/min, where eluent A is 0.2% aq. TFA and eluent B is 0.18% TFA in acetonitrile; temperature, 30° C. Preparative RP-HPLC: Peptides were dissolved in 0.2% aq. TFA containing 2% acetonitrile to a final concentration of 10 mg/ml. Following filtration through a 0.45 μm Millipore filter and subsequently through a 0.22 μm filter, the peptide solutions were loaded onto the column via multiple 20-ml injections into a 20-ml injection loop at a flow-rate of 10 ml/min. Column, Luna C18 (2), 250×30 mm I.D., 5 um particle size, 100 Å pore size from Phenomenex. Run conditions: 2% acetonitrile/min gradient up to an acetonitrile concentration 10% below that required to elute the peptide during analytical RP-HPLC, then shallow gradient elution (0.05% or 0.1% acetonitrile/min depending on the complexity of impurities near the product of interest on the analytical run of the crude peptide) at a flow-rate of 10 ml/min (same eluents as shown above for analytical RP-HPLC); at room temperature. • Temperature Profiling of Peptides on Reversed-phase HPLC to Measure Dimerization and Oligomerization: Purified peptides were analyzed on an Agilent 1200 series liquid chromatograph for temperature profiling using a Zorbax 300 SB-C8 column (150 mm×2.1 mm I.D.; 5 μm particle size, 300 Å pore size) from Agilent Technologies. […] Temperature profiling was carried out on peptide mixtures run at each temperature in 2° C. increments from 5° C. to 41° C. and 10° C. increments from 5° C. to 75° C. Twenty minutes was allowed between runs for temperature equilibration. • Characterization of Helical Structure: The mean residue molar ellipticities of peptides were determined by circular dichroism (CD) spectroscopy, using a Jasco J-815 spectropolarimeter (Jasco Inc. Easton, Md., USA) at 5° C. under KP buffer (50 mM NaH2PO4/Na2HPO4/100 mM KCl, pH 7.0) as well as in the presence of an α-helix inducing solvent, 2,2,2-trifluoroethanol, TFE, (50 mM NaH2PO4/Na2HPO4/100 mM KCl, pH 7.0 buffer/50% TFE). A 10-fold dilution of an approximately 500 μM stock solution of the peptide analogs was loaded into a 0.1 cm quartz cell and its ellipticity scanned from 195 to 250 nm.

[3] = tested on: Acinetobacter baumannii isolates resistant to classical antibiotics; assay type: cell-based; settings: isolates resistant to classical antibiotics
Source text: Thus, shortening the number of carbon atoms between the side-chain amino group and the α-carbon atom from four (Lys) to one (diaminopropionic acid) had very little effect on antibacterial activity (Table 2). We also determined the antibacterial activity of our five AMPs against 20 additional Acinetobacter baumannii isolates from four continents, 12 different countries and 17 different cities that were resistant to 18 different antibiotics. […] Thus, it is very clear that changing the type of positively-charged residue on the polar face of these AMPs had very little effect on the antibacterial activities.

SMILES | number of resistant isolates out of the number of isolates screened [1] | MIC MB9941 [2] | MIC MB9949 [2] | MIC MB9951 [2] | MIC MB9952 [2] | MIC MB9953 [2] | MIC MB9955 [2] | MIC MB9963 [2] | further results
NCC[C@H](O)C(=O)N[C@@H]1C[C@H](N)[C@@H](O[C@H]2O[C@H](CN)[C@@H](O)[C@H](O)[C@H]2O)[C@H](O)[C@H]1O[C@H]1O[C@H](CO)[C@@H](O)[C@H](N)[C@H]1O [Amikacin] | 17/20 | – | – | – | – | – | – | – | –
C[C@H]1[C@H](NC(=O)/C(=N\OC(C)(C)C(=O)O)c2csc(N)n2)C(=O)N1S(=O)(=O)O [Aztreonam] | 20/20 | – | – | – | – | – | – | – | –
CO/N=C(\C(=O)N[C@@H]1C(=O)N2C(C(=O)[O-])=C(C[N+]3(C)CCCC3)CS[C@H]12)c1csc(N)n1 [Cefepime] | 18/20 | – | – | – | – | – | – | – | –
CC(C)(O/N=C(\C(=O)N[C@@H]1C(=O)N2C(C(=O)[O-])=C(C[n+]3ccccc3)CS[C@H]12)c1csc(N)n1)C(=O)O [Ceftazidime] | 17/20 | – | – | – | – | – | – | – | –
O=C(O)c1cn(C2CC2)c2cc(N3CCNCC3)c(F)cc2c1=O [Ciprofloxacin] | 15/20 | – | – | – | – | – | – | – | –
CC(=O)N[C@H](CCCCN)C(=O)N[C@H](CC(C)C)C(=O)N[C@H](CCCCN)C(=O)N[C@H](CO)C(=O)N[C@H](CC(C)C)C(=O)N[C@H](CC(C)C)C(=O)N[C@H](CCCCN)C(=O)N[C@@H](C(=O)N[C@H](CC(C)C)C(=O)N[C@H](CO)C(=O)N[C@H](CCCCN)C(=O)N[C@H](C)C(=O)N[C@H](CCCCN)C(=O)N[C@H](C)C(=O)N[C@H](C)C(=O)N[C@H](CCCCN)C(=O)N[C@H](CC(C)C)C(=O)N[C@H](CCCCN)C(=O)N[C@@H](C(=O)N[C@H](CC(C)C)C(=O)N[C@H](CC(C)C)C(=O)N[C@H](CCCCN)C(=O)N[C@H](C)C(=O)N[C@H](CC(C)C)C(=O)N[C@H](CO)C(=O)N[C@H](CCCCN)C(N)=O)[C@H](C)O)[C@H](C)O [D84(Lys^1-6Lys-1), Ac-KL(Lys)SLL(Lys)TLS(Lys)AKAAKL(Lys)TLL(Lys)ALS(Lys)-amide] | – | 0.3 µM (≈ 0.86 µg/mL) | 0.7 µM (≈ 2.01 µg/mL) | 0.3 µM (≈ 0.86 µg/mL) | 0.7 µM (≈ 2.01 µg/mL) | 0.7 µM (≈ 2.01 µg/mL) | 0.3 µM (≈ 0.86 µg/mL) | 0.7 µM (≈ 2.01 µg/mL) | MIC 101887 [3]: 0.7 µM (≈ 2.01 µg/mL); MIC 961997 [3]: 1.4 µM (≈ 4.01 µg/mL); MIC 963618 [3]: 0.7 µM (≈ 2.01 µg/mL); MIC 964304 [3]: 1.4 µM (≈ 4.01 µg/mL); MIC 977751 [3]: 0.3 µM (≈ 0.86 µg/mL); MIC 981653 [3]: 0.7 µM (≈ 2.01 µg/mL); MIC 1002956 [3]: 0.3 µM (≈ 0.86 µg/mL); MIC 1007660 [3]: 0.3 µM (≈ 0.86 µg/mL); MIC 1010282 [3]: 0.7 µM (≈ 2.01 µg/mL); MIC 1035166 [3]: 0.7 µM (≈ 2.01 µg/mL)
CC(=O)N[C@H](CCCCN)C(=O)N[C@H](CC(C)C)C(=O)N[C@H](CCCCN)C(=O)N[C@H](CO)C(=O)N[C@H](CC(C)C)C(=O)N[C@H](CC(C)C)C(=O)N[C@H](CCCCN)C(=O)N[C@@H](C(=O)N[C@H](CC(C)C)C(=O)N[C@H](CO)C(=O)N[C@H](CCCCN)C(=O)N[C@H](C)C(=O)N[C@H](CCCCN)C(=O)N[C@H](C)C(=O)N[C@H](C)C(=O)N[C@H](CCCCN)C(=O)N[C@H](CC(C)C)C(=O)N[C@H](CCCCN)C(=O)N[C@@H](C(=O)N[C@H](CC(C)C)C(=O)N[C@H](CC(C)C)C(=O)N[C@H](CCCCN)C(=O)N[C@H](C)C(=O)N[C@H](CC(C)C)C(=O)N[C@H](CO)C(=O)N[C@H](CO)C(N)=O)[C@H](C)O)[C@H](C)O [D101(Lys^1Ser^26-5Lys-1), Ac-KL(Lys)SLL(Lys)TLS(Lys)AKAAKL(Lys)TLL(Lys)ALS(Ser)-amide] | – | 0.7 µM (≈ 1.98 µg/mL) | 0.7 µM (≈ 1.98 µg/mL) | 0.7 µM (≈ 1.98 µg/mL) | 0.7 µM (≈ 1.98 µg/mL) | 1.5 µM (≈ 4.24 µg/mL) | 0.7 µM (≈ 1.98 µg/mL) | 0.7 µM (≈ 1.98 µg/mL) | MIC 101887 [3]: 1.4 µM (≈ 3.95 µg/mL); MIC 961997 [3]: 1.4 µM (≈ 3.95 µg/mL); MIC 963618 [3]: 0.7 µM (≈ 1.98 µg/mL); MIC 964304 [3]: 1.4 µM (≈ 3.95 µg/mL); MIC 977751 [3]: 0.7 µM (≈ 1.98 µg/mL); MIC 981653 [3]: 0.7 µM (≈ 1.98 µg/mL); MIC 1002956 [3]: 0.7 µM (≈ 1.98 µg/mL); MIC 1007660 [3]: 0.7 µM (≈ 1.98 µg/mL); MIC 1010282 [3]: 1.4 µM (≈ 3.95 µg/mL); MIC 1035166 [3]: 1.4 µM (≈ 3.95 µg/mL)
CC(=O)N[C@H](CCCCN)C(=O)N[C@H](CC(C)C)C(=O)N[C@@H](CN)C(=O)N[C@H](CO)C(=O)N[C@H](CC(C)C)C(=O)N[C@H](CC(C)C)C(=O)N[C@@H](CN)C(=O)N[C@@H](C(=O)N[C@H](CC(C)C)C(=O)N[C@H](CO)C(=O)N[C@H](C)C(=O)N[C@H](C)C(=O)N[C@H](CCCCN)C(=O)N[C@@H](CN)C(=O)N[C@@H](CN)C(=O)N[C@H](CCCCN)C(=O)N[C@H](CC(C)C)C(=O)N[C@H](C)C(=O)N[C@@H](C(=O)N[C@H](CC(C)C)C(=O)N[C@H](CC(C)C)C(=O)N[C@@H](CN)C(=O)N[C@H](C)C(=O)N[C@H](CC(C)C)C(=O)N[C@H](CO)C(=O)N[C@@H](CN)C(N)=O)[C@H](C)O)[C@H](C)O [D106(Lys^1-6 Dap-2), Ac-KL(L-Dap)SLL(L-Dap)TLSAAK(L-Dap)(L-Dap)KLATLL(L-Dap)ALS(L-Dap)-amide] (Ac-[dK][dL][Dap][dS][dL][dL][Dap][dT][dL][dS][dA][dA][dK][Dap][Dap][dK][dL][dA][dT][dL][dL][Dap][dA][dL][dS][Dap]-NH2) | – | 0.8 µM (≈ 2.09 µg/mL) | 0.8 µM (≈ 2.09 µg/mL) | 1.5 µM (≈ 3.92 µg/mL) | 0.8 µM (≈ 2.09 µg/mL) | 0.8 µM (≈ 2.09 µg/mL) | 0.4 µM (≈ 1.05 µg/mL) | 0.8 µM (≈ 2.09 µg/mL) | –
